{"source": "patent US20070135382A1", "about": "“Use of peroxisome proliferator-activated receptor gamma (ppary) and/or retinoic acid receptor (rxr) agonists to inhibit platelet functions” (priority 2003, published 2007)", "key": {"PPARγ [1]": {"molecular_target": "T1, PPARγ (Homo sapiens, UniProt P37231)", "T1 construct": "endogenous in cells; host or cells: purified human blood platelets", "T1 sequence (P37231 1-505)": "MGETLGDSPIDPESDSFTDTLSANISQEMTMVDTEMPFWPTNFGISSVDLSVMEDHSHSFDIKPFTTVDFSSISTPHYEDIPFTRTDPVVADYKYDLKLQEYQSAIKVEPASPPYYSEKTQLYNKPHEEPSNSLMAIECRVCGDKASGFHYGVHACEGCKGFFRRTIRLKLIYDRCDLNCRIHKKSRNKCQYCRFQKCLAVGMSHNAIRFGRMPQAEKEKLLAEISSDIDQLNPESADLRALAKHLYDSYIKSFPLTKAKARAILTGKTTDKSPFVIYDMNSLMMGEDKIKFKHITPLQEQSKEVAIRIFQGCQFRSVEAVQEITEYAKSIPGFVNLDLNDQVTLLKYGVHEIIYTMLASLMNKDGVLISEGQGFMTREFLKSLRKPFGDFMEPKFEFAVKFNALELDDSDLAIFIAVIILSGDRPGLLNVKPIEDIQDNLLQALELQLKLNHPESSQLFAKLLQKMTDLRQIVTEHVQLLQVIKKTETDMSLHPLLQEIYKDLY", "T1 sequence (P19793 1-462 partner)": "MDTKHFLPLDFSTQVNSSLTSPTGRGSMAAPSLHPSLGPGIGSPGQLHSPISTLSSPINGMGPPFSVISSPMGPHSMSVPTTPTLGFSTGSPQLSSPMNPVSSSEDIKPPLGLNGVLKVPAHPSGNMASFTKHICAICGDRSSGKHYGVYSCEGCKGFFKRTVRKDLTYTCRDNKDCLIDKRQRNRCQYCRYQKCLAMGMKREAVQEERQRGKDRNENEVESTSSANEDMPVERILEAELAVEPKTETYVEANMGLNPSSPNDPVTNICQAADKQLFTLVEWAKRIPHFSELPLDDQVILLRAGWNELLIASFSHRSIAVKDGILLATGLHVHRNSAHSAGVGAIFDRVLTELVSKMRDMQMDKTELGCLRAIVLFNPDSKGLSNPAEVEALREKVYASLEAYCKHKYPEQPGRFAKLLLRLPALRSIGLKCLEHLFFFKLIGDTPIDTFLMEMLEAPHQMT", "assay": "Electrophoretic mobility shift assay for PPARγ DNA binding in Meg-01 cells", "type": "cell-based", "conditions": "15d-PGJ2 5 μM or ciglitazone 10 μM, 4 hours, nuclear extract, vs DMSO", "experimental": "Cells were treated with 5 μM 15d-PGJ2, 10 μM ciglitazone, or DMSO (vehicle control) for 4 hours. The cells were washed in cold PBS and then incubated on ice in hypotonic buffer (10 mM HEPES-KOH (pH 7.9), 1.5 mM MgCl2, 10 mM KCl, 0.5 mM DTT, 0.5% Nonidet P-40 and 0.2 mM PMSF) for 10 minutes. The lysates were vortexed for 10 seconds and centrifuged for 15 seconds. The pellet was isolated carefully and re-suspended in 80 μl of hypertonic buffer (20 mM HEPES-KOH (pH 7.9), 1.5 mM MgCl2, 25% glycerol, 420 mM NaCl, 0.2 mM EDTA, 0.5 mM DTT, and 0.2 mM PMSF). After incubation on ice for 20 minutes, lysates were centrifuged for 20 seconds and the supernatant containing the nuclear protein was transferred to new tubes. Protein quantification was performed using a BCA assay kit. Platelet protein isolation was done as described for the PPARγ activity assay. For the gel shift assay of Meg-01 and platelets, the consensus sequence for PPARγ (5′-[…]-3′) (SEQ ID NO: 1) was labeled with [γ-32P]ATP using T4 Polynucleotide Kinase (Life technologies). Micro Bio-Spin P-30 Tris Chromatography Columns were used to remove the unbound nucleotides (Bio-Rad). […]"}, "PPARγ [2]": {"molecular_target": "T1, PPARγ", "assay": "TransAM PPARγ DNA binding activity assay in platelets", "type": "cell-based", "conditions": "platelets exposed to 20 μM agonist, 2 h at 37° C.", "description": "Platelets were lysed with hypotonic buffer (10 mM HEPES-KOH (pH 7.9), 1.5 mM MgCl2, 10 mM KCl, 0.5 mM DTT, 0.5% Nonidet P-40 and 0.2 mM PMSF) and 10 μg of cell extract was incubated in each well of TransAM® PPARγ assay kit (Active Motif, Carlsbad, Calif.) and PPARγ DNA binding was determined as per manufacturers' protocol.\nThe ability of platelet derived PPARγ to bind its DNA consensus sequence was also measured using the TransAM™ PPARγ assay kit (Active Motif Inc.). In this method the consensus DNA sequence for PPARγ binding (or as a control mutated oligonucleotides) is plate-bound. A cell lysate is then added to the well, washed and next incubated with an enzyme-conjugated anti-PPARγ antibody that recognizes only DNA-bound PPARγ. Following substrate addition, a colored product is formed."}, "human platelets [3]": {"tested_on": "human platelets", "assay": "Thrombin-induced platelet release of CD40L (ELISA)", "type": "cell-based", "conditions": "20 μM for 15 min, then 0.8 U/ml thrombin, 5-60 min", "experimental": "(§1) Platelets were then activated with 0.8 U/ml thrombin or buffer and samples were taken at the 5, 10, 15, 30 and 60 minutes time points to measure human soluble CD40L and PGE2. CD40L assays were performed with a commercially available ELISA specific for CD40L (Bender Biomedical Systems, San Bruno, Calif.). […] The stable end product of platelet TXA2 synthesis, namely TXB2, was measured using a highly specific enzyme immunoassay from Cayman Chemical Company as per the manufacturer's directions.\n(§2) Platelets were then incubated with buffer or with thrombin, a powerful platelet activator."}, "human platelets [4]": {"tested_on": "human platelets", "assay": "Thrombin-induced platelet release of TXB2 (enzyme immunoassay)", "type": "cell-based", "conditions": "20 μM for 15 min, then 0.8 U/ml thrombin, 5-60 min", "experimental": "as §1, §2"}, "human platelets [5]": {"tested_on": "human platelets", "assay": "Thrombin-induced platelet release of PGE2 (enzyme immunoassay)", "type": "cell-based", "conditions": "20 μM for 15 min, then 0.8 U/ml thrombin", "experimental": "as §1"}, "platelets [6]": {"tested_on": "platelets", "assay": "Platelet aggregation in platelet rich plasma (turbidometric method of Born)", "type": "cell-based, human", "description": "Platelet aggregation was performed using the turbidometric method of Born (“Quantitative Investigations into the Aggregation of Blood Platelets,” J. Physiol. Lond. 162:67 (1962), which is hereby incorporated by reference in its entirety) with simultaneous measurement of ATP release using a Chrono-log Lumi-aggregometer with AGGRO/LINK for Windows Software version 5.1.6 (Chrono-log Corp., Havertown, Pa.). Blood was collected by clean venipuncture from normal donors who abstained from drugs known to affect platelet aggregation into 0.105M/sodium citrate. Platelet rich plasma (PRP) was prepared by centrifugation at 150×g for 10 min at 20° C., and the platelet count adjusted to 250,000/μl by mixing PRP and platelet poor plasma from the same donor. All experiments were performed within 3 hours of blood collection. Aggregation was performed with ADP, and the slope of aggregation and amplitude were computed using accompanying software. The effects of the PPARγ agonist 15d-PGJ2 were tested by addition of varying concentrations to PRP for 15 min before aggregation. The 15d-PGJ2 was dissolved in DMSO, with a final concentration of DMSO in the samples of approximately 0.1%."}, "Human blood": {"tested_on": "Human blood", "assay": "PFA-100 clotting (closure) time in human blood", "type": "cell-based", "conditions": "vs vehicle only, p=0.012", "experimental": "Platelet activation was induced using epinephrine or ADP, and clotting time was assessed using a PFA-100. The PFA-100 allows for an approximation of bleeding times in patients. Longer closure times equal a lower ability to form a clot. […] Human blood was exposed to 15d-PGJ2 or vehicle only followed by testing in the PFA-100 activated with ADP."}, "platelets [7]": {"tested_on": "platelets", "assay": "ATP release from platelets during aggregation (Lumi-aggregometry)", "conditions": "20 μM", "description": "ATP release from platelets during aggregation was characterized by Lumi-Aggregometry after stimulation with thrombin (1 U/ml) or ADP (5 μM). […] The rate of release with normal platelets was defined as 100%. […] The results represent mean±SEM of three experiments.\nPlatelet aggregation was performed using the turbidometric method of Born (“Quantitative Investigations into the Aggregation of Blood Platelets,” J. Physiol. Lond. 162:67 (1962), which is hereby incorporated by reference in its entirety) with simultaneous measurement of ATP release using a Chrono-log Lumi-aggregometer with AGGRO/LINK for Windows Software version 5.1.6 (Chrono-log Corp., Havertown, Pa.). Blood was collected by clean venipuncture from normal donors who abstained from drugs known to affect platelet aggregation into 0.105M/sodium citrate. Platelet rich plasma (PRP) was prepared by centrifugation at 150×g for 10 min at 20° C., and the platelet count adjusted to 250,000/μl by mixing PRP and platelet poor plasma from the same donor. All experiments were performed within 3 hours of blood collection. Aggregation was performed with ADP, and the slope of aggregation and amplitude were computed using accompanying software. The effects of the PPARγ agonist 15d-PGJ2 were tested by addition of varying concentrations to PRP for 15 min before aggregation. The 15d-PGJ2 was dissolved in DMSO, with a final concentration of DMSO in the samples of approximately 0.1%. […] Additional clotting studies were performed using a PFA-100 according to the manufacturer's instructions. Basically, clotting time (induced by clotting activator such as epinephrine or ADP) was measured in the presence or absence of a PPARγ agonist, and differences noted.\nTo determine if a PPARγ agonist would inhibit platelet aggregation, the natural PPARγ agonist 15d-PGJ2 was added to PRP and aggregation and ATP release stimulated with ADP."}}}
{"smiles": "CCCCC/C=C/C=C1/C(=O)C=C[C@@H]1C/C=C\\CCCC(=O)O", "note": "[15d-PGJ2, 15D-prostaglandin J2]", "values": [{"measurement": "level of active (DNA binding) PPARγ in Meg-01 cells by EMSA", "setting": "PPARγ [1]", "value": "increased"}, {"measurement": "binding to the PPARγ DNA response element (TransAM)", "setting": "PPARγ [2]", "value": "significantly enhances binding"}, {"measurement": "release of CD40L", "setting": "human platelets [3]", "value": "largely prevented"}, {"measurement": "release of TXB2", "setting": "human platelets [4]", "value": "largely prevented"}, {"measurement": "thrombin-induced release of PGE2", "setting": "human platelets [5]", "value": "substantially prevented"}, {"measurement": "aggregation slope (rate)", "setting": "platelets [6]; 10 μM, ADP as platelet agonist", "value": "decrease the aggregation slope"}, {"measurement": "initial slope of platelet aggregation, % of the normal (untreated)", "setting": "platelets [6]; 20 μM, ADP-stimulated PRP, first 16 seconds, mean±SEM, n=7", "value": "83±5", "unit": "%"}, {"measurement": "amplitude of aggregation, % of normal platelets", "setting": "platelets [6]; 20 μM, ADP-stimulated PRP, mean±SEM, n=7", "value": "64±11", "unit": "%"}, {"measurement": "platelet aggregation, concentration dependence", "setting": "platelets [6]; varying concentrations, 15 min before ADP", "value": "concentration dependent inhibition"}, {"measurement": "PFA-100 closure time, ADP activated", "setting": "Human blood", "value": "takes longer to form a closure"}, {"measurement": "ATP release amplitude, % of normal platelets", "setting": "platelets [7]; ADP-stimulated, n=7", "value": "22±10", "unit": "%"}, {"measurement": "ATP release slope, % of normal", "setting": "platelets [7]; ADP-stimulated, n=7", "value": "15±5", "unit": "%"}, {"measurement": "rate of ATP release with thrombin", "setting": "platelets [7]; thrombin 1 U/ml", "value": "significant (P=0.002) reduction"}]}
